According to BindingDB's records for doi:10.3109/14756366.2010.518965 (Guangzhou Institutes of Biomedicine and Health, Chinese …, 2011):
Structures can show the parent of a compound that is named as a salt.

Tests used:
Assay in all cases: UDP-glucuronosyltransferase Activity Assay
[1] = molecular target: T1, UDP-glucuronosyltransferase 1A4 (Homo sapiens, UniProt P22310)
T1 sequence (P22310 whole entry): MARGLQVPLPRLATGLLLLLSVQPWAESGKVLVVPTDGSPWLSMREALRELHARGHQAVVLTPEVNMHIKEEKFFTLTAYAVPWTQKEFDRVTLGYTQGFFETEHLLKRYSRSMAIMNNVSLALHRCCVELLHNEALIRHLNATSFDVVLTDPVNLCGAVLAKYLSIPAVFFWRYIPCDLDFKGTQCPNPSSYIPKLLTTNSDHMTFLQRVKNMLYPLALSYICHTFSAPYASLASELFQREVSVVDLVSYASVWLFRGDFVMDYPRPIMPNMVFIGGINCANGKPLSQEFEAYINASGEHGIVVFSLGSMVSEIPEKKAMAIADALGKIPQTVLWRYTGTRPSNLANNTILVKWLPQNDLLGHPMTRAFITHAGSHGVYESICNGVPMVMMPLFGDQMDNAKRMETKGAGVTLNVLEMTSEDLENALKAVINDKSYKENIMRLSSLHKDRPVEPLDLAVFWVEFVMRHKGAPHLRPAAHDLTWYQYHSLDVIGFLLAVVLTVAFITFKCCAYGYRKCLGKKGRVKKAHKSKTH

[2] = molecular target: T2, UDP-glucuronosyltransferase 1A1 (Homo sapiens, UniProt P22309)
T2 sequence (P22309 whole entry): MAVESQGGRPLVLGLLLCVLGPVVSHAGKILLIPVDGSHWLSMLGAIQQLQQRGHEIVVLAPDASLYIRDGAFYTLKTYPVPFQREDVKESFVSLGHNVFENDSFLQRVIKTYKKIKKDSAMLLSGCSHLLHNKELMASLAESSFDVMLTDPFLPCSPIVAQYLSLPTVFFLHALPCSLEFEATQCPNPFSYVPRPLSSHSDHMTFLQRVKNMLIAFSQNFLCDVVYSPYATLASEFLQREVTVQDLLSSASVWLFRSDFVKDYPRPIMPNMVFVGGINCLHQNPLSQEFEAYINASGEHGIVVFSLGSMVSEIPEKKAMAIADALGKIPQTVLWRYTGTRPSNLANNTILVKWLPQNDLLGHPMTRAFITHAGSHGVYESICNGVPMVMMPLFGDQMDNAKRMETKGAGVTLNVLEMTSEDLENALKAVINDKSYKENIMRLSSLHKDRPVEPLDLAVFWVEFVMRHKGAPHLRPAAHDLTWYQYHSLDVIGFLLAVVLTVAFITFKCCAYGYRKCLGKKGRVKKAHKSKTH

[3] = molecular target: T3, UDP-glucuronosyltransferase 2B10 (Homo sapiens, UniProt P36537)
T3 sequence (P36537 whole entry): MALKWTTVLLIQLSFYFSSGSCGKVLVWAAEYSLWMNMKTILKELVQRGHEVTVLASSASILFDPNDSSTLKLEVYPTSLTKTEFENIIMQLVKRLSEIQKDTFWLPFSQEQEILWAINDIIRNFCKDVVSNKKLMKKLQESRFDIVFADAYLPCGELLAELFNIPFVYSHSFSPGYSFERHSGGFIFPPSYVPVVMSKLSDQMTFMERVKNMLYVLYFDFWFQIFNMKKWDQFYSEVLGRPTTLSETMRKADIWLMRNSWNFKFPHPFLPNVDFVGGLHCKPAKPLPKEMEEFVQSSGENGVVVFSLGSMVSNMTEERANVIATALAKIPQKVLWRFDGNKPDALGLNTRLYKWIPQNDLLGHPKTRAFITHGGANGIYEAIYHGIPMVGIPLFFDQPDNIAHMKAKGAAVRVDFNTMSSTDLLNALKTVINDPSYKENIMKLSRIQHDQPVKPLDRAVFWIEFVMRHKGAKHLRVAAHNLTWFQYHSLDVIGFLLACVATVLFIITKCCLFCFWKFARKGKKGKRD

[4] = molecular target: T4, UDP-glucuronosyltransferase 1-6 (Homo sapiens, UniProt P19224)
T4 sequence (P19224 whole entry): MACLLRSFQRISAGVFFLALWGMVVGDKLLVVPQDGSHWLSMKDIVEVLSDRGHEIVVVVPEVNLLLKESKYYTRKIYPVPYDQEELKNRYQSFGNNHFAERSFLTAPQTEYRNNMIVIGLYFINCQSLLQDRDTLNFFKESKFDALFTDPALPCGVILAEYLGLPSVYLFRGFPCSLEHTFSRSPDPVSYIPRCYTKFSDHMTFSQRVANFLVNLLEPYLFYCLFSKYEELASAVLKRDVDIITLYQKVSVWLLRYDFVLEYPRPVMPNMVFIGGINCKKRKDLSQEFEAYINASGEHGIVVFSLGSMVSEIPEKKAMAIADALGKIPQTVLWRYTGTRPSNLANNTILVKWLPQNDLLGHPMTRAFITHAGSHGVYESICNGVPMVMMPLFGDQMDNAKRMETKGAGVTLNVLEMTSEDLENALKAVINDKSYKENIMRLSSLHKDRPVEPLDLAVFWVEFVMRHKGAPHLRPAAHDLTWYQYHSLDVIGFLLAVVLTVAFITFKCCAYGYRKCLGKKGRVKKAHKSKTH

[5] = molecular target: T5, UDP-glucuronosyltransferase 2B7 (Homo sapiens, UniProt P16662)
T5 sequence (P16662 whole entry): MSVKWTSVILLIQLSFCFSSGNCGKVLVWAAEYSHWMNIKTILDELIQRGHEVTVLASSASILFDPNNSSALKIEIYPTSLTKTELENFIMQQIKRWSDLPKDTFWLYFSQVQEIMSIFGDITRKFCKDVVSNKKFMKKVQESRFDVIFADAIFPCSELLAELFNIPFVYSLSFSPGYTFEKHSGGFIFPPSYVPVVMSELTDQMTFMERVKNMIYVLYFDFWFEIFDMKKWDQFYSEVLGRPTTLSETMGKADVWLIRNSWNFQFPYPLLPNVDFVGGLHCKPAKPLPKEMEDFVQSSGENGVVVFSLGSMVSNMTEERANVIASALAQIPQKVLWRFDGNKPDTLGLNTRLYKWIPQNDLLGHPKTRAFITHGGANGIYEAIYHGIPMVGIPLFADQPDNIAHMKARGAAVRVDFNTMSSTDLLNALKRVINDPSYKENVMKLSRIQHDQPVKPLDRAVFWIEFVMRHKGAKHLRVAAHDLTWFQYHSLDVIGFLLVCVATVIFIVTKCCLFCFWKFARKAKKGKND

SMILES | IC50 [1] | IC50 [2] | IC50 [3] | IC50 [4] | IC50 [5]
CC(=O)O[C@H]1C(=O)[C@@]2(C)[C@H]([C@H](OC(=O)c3ccccc3)[C@]3(O)C[C@H](OC(=O)[C@H](O)[C@@H](NC(=O)c4ccccc4)c4ccccc4)C(C)=C1C3(C)C)[C@]1(OC(C)=O)CO[C@@H]1C[C@@H]2O | 4.9 µM | 20 µM | > 300 µM | 74 µM | > 300 µM
O=c1cc(-c2ccccc2)oc2c1ccc1ccccc12 | 23 µM | 38 µM | > 300 µM | 67 µM | 149 µM
Nc1ccc(S(=O)(=O)Nc2ccnn2-c2ccccc2)cc1 | > 300 µM | > 300 µM | > 300 µM | > 300 µM | > 300 µM
CCCCNC(=O)NS(=O)(=O)c1ccc(C)cc1 [1-Butyl-3-(p-methylphenylsulfonyl)urea] | > 300 µM | > 300 µM | > 300 µM | 281 µM | > 300 µM
O=c1ccc2ccccc2o1 [2H-chromen-2-one] | > 300 µM | > 300 µM | > 300 µM | > 300 µM | > 300 µM
Cc1ncc2n1-c1ccc(Cl)cc1C(c1ccccc1F)=NC2 [12-chloro-9-(2-fluorophenyl)-3-methyl-2,4,8-triazatricyclo[8.4.0.0^{2,6}]tetradeca-1(10),3,5,8,11,13-hexaene] | – | 26 µM | 106 µM | 23 µM | 147 µM
CC[C@@]1(c2ccccc2)NC(=O)N(C)C1=O [(5S)-5-Ethyl-3-methyl-5-phenyl-2,4-imidazolidinedione] | > 300 µM | > 300 µM | > 300 µM | > 300 µM | > 300 µM
C=C[C@H]1C[N@@]2CC[C@H]1C[C@@H]2[C@@H](O)c1ccnc2ccc(OC)cc12 [(6-Methoxy-quinolin-4-yl)-(5-vinyl-1-aza-bicyclo[2.2.2]oct-2-yl)-methanol] | 166 µM | > 300 µM | > 300 µM | > 300 µM | > 300 µM
CCOc1ccc(NC(C)=O)cc1 [ACETPHENETIDIN] | > 300 µM | > 300 µM | > 300 µM | > 300 µM | > 300 µM
CC(NC(C)(C)C)C(=O)c1cccc(Cl)c1 (stereo not given) [BUPROPION HYDROCHLORIDE] | 152 µM | > 300 µM | 88 µM | > 300 µM | > 300 µM
Cc1ncsc1CCCl [Chlormethiazole] | > 300 µM | > 300 µM | > 300 µM | > 300 µM | > 300 µM
COc1ccc2c(c1)[C@@]13CCCC[C@@H]1[C@@H](C2)N(C)CC3 [Dextromethorphan] | 89 µM | > 300 µM | 62 µM | > 300 µM | > 300 µM
COc1ccc2[nH]c([S+]([O-])Cc3ncc(C)c(OC)c3C)nc2c1 (stereo not given) [H-168/68] | > 300 µM | 56 µM | > 300 µM | 185 µM | > 300 µM
CC(=O)N1CCN(c2ccc(OC[C@@H]3CO[C@@](Cn4ccnc4)(c4ccc(Cl)cc4Cl)O3)cc2)CC1 [Nizoral] | 58 µM | 4.1 µM | 22 µM | 19 µM | 60 µM
CO[C@H]1C[C@H](O[C@H]2[C@H](C)[C@@H](O[C@@H]3O[C@H](C)C[C@H](N(C)C)[C@H]3O)[C@@H](C)C[C@@]3(CO3)C(=O)[C@H](C)[C@@H](O)[C@@H](C)[C@@H](C)OC(=O)[C@@H]2C)O[C@@H](C)[C@@H]1O [Oleandomycin] | 59 µM | 44 µM | > 300 µM | > 300 µM | 272 µM
C[C@]12CC[C@H]3[C@@H](CCC4=CC(=O)CC[C@@]43C)[C@@H]1CC[C@@H]2O [Testosterone, 1] | – | 43 µM | > 300 µM | > 300 µM | 165 µM
Cc1nc2c([nH]1)c(=O)n(C)c(=O)n2Cc1ccco1 [furafylline] | > 300 µM | > 300 µM | > 300 µM | > 300 µM | > 300 µM
O=C(O)Cc1ccccc1Nc1c(Cl)cccc1Cl [{2-[(2,6-dichlorophenyl)amino]phenyl}acetic acid] | 192 µM | 155 µM | – | – | –
